Results from paper PMC10064330, “Reversible Dual-Covalent Molecular Locking of the 14-3-3/ERRγ Protein–Protein Interaction as a Molecular Glue Drug Discovery Approach” (Journal of the American Chemical Society, 2023).

Biological target: T1, 14-3-3γ/PIN1 complex (Homo sapiens, UniProt P61981)
T1 construct: made in house; host or cells: E. coli NiCo21 (DE3)
T1 sequence (P61981 1-247): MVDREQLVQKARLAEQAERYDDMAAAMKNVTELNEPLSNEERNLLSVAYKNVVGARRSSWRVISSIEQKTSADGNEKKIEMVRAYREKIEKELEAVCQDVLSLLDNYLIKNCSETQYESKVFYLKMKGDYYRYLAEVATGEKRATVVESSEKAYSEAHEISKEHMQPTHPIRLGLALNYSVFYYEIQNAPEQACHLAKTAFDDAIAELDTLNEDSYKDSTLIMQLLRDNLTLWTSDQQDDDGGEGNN
Assay: FA selectivity screen, PIN1 client peptide
Type: binding
Conditions: 100 μM compound, PIN1 peptide (+1 Trp)
Description: Drugging the hub protein 14-3-3 raises the challenge of selectivity, given that 14-3-3 binds several hundred phosphoprotein partners (Figure 4a).[54] We hypothesized that the interplay of chemical reactivity, the topology, and functionality of the composite binding pocket shaped by 14-3-3 and the interaction partner drives selective stabilization of the 14-3-3/ERRγ complex.[53] To validate selectivity, molecular locks 5 and 10 were tested against a panel of nine 14-3-3 client peptides in an FA assay, and the SF100 was determined for each 14-3-3 PPI (Figure 4b and Figures S18–S20). This client panel contained a diverse representation of 14-3-3 binding proteins, differing for example in size and hydrophobicity of the +1 amino acid. Importantly, clients PKR and RND3, each containing a +1 Cys, were included in the panel.
Figure S20. KD and SF100 plot – selectivity screen. […]
nine different client peptides in presence of DMSO (negative control) or 100 µM of compound 1, 5 or 10 (based on binding curves in Figure S19). […]
A pPROEX HTb expression vector encoding the human 14-3-3 protein gamma (14-3-3γ) with a N-terminal his6-tag was transformed by heat shock into NiCo21 (DE3) competent cells. […] Finally, the protein was concentrated to ∼60 mg/mL, analyzed Q-Tof LC/MS, and aliquots were flash-frozen for storage at −80 °C. […]

Structure (SMILES): CN(C)CCSSCCN(C)C(=O)c1ccc(C=O)c(F)c1 [compound 5]
- off-target effect in client screen: minor off-target effects
